Some results are limits rather than exact numbers.

Leucine-rich repeat serine/threonine-protein kinase 2, sequence (Q5S007 whole entry G2019S, the tested form may be a part): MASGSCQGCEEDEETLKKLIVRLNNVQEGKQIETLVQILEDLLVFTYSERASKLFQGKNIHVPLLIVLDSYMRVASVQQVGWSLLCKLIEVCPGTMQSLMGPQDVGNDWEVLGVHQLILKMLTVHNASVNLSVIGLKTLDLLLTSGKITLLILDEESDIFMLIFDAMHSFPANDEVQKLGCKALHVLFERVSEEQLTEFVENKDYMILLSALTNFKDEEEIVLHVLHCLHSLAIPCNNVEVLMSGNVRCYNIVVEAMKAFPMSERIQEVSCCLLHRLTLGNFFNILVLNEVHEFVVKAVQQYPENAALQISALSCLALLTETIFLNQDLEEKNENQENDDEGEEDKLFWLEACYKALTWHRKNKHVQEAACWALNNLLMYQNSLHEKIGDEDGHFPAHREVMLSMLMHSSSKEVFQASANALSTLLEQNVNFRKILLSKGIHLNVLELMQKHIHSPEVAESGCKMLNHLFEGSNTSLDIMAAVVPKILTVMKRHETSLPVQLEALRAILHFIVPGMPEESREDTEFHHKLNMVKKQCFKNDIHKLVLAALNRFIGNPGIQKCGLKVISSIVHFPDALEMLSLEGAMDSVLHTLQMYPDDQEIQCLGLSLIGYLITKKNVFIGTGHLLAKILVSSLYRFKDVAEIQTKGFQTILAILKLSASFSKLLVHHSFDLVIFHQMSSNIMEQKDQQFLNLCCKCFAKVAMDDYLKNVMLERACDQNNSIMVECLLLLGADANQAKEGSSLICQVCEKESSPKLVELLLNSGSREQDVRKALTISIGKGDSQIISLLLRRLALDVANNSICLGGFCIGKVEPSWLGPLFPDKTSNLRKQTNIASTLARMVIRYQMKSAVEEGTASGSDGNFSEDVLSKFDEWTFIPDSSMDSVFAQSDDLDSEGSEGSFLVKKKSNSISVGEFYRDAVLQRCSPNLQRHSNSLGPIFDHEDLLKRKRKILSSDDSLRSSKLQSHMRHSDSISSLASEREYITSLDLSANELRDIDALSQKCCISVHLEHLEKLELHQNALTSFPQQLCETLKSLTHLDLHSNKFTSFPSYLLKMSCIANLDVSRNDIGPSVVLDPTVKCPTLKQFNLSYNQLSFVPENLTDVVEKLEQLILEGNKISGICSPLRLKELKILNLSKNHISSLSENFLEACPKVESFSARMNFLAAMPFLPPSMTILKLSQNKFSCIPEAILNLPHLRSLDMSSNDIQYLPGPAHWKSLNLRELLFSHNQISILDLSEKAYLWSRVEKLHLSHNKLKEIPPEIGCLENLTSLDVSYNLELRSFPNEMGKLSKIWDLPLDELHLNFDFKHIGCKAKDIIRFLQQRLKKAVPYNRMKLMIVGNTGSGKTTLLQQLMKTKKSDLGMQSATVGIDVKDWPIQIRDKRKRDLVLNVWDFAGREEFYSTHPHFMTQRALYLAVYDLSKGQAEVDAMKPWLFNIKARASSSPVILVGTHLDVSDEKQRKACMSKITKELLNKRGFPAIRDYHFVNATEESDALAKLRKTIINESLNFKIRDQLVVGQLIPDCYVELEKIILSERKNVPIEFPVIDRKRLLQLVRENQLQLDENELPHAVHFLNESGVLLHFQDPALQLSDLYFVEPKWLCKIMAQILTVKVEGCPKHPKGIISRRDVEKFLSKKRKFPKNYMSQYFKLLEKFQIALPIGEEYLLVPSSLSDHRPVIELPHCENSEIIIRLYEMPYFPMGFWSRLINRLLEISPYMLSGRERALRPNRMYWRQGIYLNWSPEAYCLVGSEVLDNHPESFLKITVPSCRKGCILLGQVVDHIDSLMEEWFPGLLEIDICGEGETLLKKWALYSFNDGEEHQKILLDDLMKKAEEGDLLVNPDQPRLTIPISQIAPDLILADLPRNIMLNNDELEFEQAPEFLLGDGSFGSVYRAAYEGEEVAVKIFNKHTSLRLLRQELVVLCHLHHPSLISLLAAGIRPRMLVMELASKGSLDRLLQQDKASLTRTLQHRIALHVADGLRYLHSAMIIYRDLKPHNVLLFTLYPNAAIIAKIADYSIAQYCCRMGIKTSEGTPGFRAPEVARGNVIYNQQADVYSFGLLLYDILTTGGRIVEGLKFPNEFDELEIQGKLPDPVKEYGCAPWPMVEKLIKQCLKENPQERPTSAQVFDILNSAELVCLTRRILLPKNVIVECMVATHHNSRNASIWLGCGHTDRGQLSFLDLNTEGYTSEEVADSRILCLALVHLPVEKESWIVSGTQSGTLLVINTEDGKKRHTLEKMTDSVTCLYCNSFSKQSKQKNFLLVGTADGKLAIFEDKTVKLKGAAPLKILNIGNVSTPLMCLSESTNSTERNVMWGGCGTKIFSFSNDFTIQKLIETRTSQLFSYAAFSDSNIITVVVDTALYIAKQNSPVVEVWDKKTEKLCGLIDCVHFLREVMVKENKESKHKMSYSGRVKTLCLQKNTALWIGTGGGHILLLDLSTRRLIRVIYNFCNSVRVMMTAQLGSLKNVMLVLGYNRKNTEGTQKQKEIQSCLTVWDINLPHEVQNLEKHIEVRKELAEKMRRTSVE

The assay concerns the target Leucine-rich repeat serine/threonine-protein kinase 2 (Homo sapiens, UniProt Q5S007, G2019S). The assay is described as follows: Inhibition of recombinant human GST tagged LRRK2 G2019S mutant catalytic domain (970 to 2527 residues) expressed in baculovirus expression system using fluorescein-labeled LRRKtide as substrate preincubated for 15 mins followed by substrate addition and measured after 90 mins by TR-FRET based Lanthascreen assay. (In general: Time-resolved FRET reads energy transfer from a long-lived donor to a nearby acceptor.)
Consider `Cn1cc(-n2ncc3cc(Cl)c(C4CCN(C5(C)CCOC5)CC4)cc32)cn1` (stereo not drawn), for which the concentration for half-maximal inhibition (IC50) is below 0.625 nM.

`CC1(N2CCC(c3cc4c(cnn4-c4cnn(C56CC(C#N)(C5)C6)c4)cc3Cl)CC2)COC1`: the IC50 was below 0.625 nM. As to `CC1(N2CCC(c3cc4c(cnn4-c4cnn(C56CC(C5)C6)c4)cc3Cl)CC2)COC1`, the IC50 turned out to be 0.71 nM.

As a reminder, the IC50 is the concentration at which inhibition is half-maximal.

These data come from ChEMBL document CHEMBL4706723, “Novel N-Heteroaryl Indazole Derivatives as LRRK2 Inhibitors for Treating Parkinson's Disease” (ACS Med Chem Lett, 2021).
